Experimental data taken from DBAASP.
In brackets after ≈: the same amount, converted by molar mass. Each block holds one molecule with its values, some of them ahead of it.

Assays:
Experiment in all cases: ≥ marks a high value that may be exact or a test limit, other limits are often not marked, values filed in µg/mL are converted to µM
[1] = test system: Pseudomonas aeruginosa PAO1
[2] = test system: Escherichia coli BL21
[3] = test system: Streptococcus pyogenes M1T1 5448
[4] = test system: Candida albicans ATCC 2002
[5] = test system: Shigella dysenteriae
[6] = test system: Bacillus cereus
[7] = test system: Pseudomonas aeruginosa
[8] = test system: Bacillus pumilus
[9] = test system: Acinetobacter calcoaceticus
[10] = test system: Escherichia coli ATCC 25922
[11] = test system: Staphylococcus aureus ATCC 2592
[12] = test system: Staphylococcus aureus AS1.72
[13] = test system: Lactococcus lactis
[14] = test system: Candida albicans
[15] = test system: Escherichia coli AS1.349
[16] = test system: Pseudomonas aeruginosa 213
[17] = test system: Enterococcus faecium mic80
[18] = test system: Pseudomonas aeruginosa LES400
[19] = test system: Candida albicans C627
[20] = test system: Escherichia coli ESBL 63103
[21] = test system: Staphylococcus aureus ATCC 25923
[22] = test system: Pseudomonas aeruginosa H103
[23] = test system: Staphylococcus aureus C623
[24] = test system: Enterococcus faecium CGMCC 1.2334
[25] = test system: Bacillus cereus AS1.126
[26] = test system: Lactococcus lactis AS1.1690
[27] = test system: Enterococcus faecalis CGMCC 1.595
[28] = test system: Pseudomonas aeruginosa CGMCC 1.860

MIC [1]: > 128 µM
MIC [2]: 4 µM (≈ 12.3 µg/mL)
MIC [3]: 2 µM (≈ 6.13 µg/mL)
Compound: CC[C@H](C)[C@H](NC(=O)[C@H](Cc1ccccc1)NC(=O)[C@H](C)NC(=O)[C@H](CCCCN)NC(=O)[C@H](CCCCN)NC(=O)CNC(=O)[C@H](CCCN=C(N)N)NC(=O)[C@H](CCCCN)NC(=O)[C@H](CCCN=C(N)N)NC(=O)[C@H](CC(C)C)NC(=O)[C@H](CCC(=O)O)NC(=O)[C@H](CCC(=O)O)NC(=O)[C@H](CC(C)C)NC(=O)[C@H](CC(C)C)NC(=O)[C@H](Cc1ccc(O)cc1)NC(=O)[C@H](CCCCN)NC(=O)[C@@H](NC(=O)[C@H](CC(C)C)NC(=O)[C@H](C)NC(=O)[C@H](CCC(N)=O)NC(=O)[C@H](CCCN=C(N)N)NC(=O)CNC(=O)[C@H](C)N)[C@@H](C)O)C(=O)N[C@@H](Cc1c[nH]c2ccccc12)C(=O)N[C@@H](Cc1c[nH]c2ccccc12)C(=O)O [AGRQALTKYLLEELRKRGKKAFIWW]

MIC [1]: 16 µM (≈ 49.3 µg/mL)
MIC [2]: 2 µM (≈ 6.17 µg/mL)
MIC [3]: 2 µM (≈ 6.17 µg/mL)
Compound: CC[C@H](C)[C@H](NC(=O)[C@H](Cc1c[nH]c2ccccc12)NC(=O)[C@H](CCC(N)=O)NC(=O)[C@H](CCCN=C(N)N)NC(=O)CNC(=O)[C@H](C)N)C(=O)N[C@@H](CCCCN)C(=O)N[C@@H](C)C(=O)N[C@@H](Cc1ccc(O)cc1)C(=O)N[C@@H](CC(C)C)C(=O)N[C@@H](CCCN=C(N)N)C(=O)N[C@@H](CCCN=C(N)N)C(=O)N[C@@H](CCC(=O)O)C(=O)N[C@H](C(=O)N[C@@H](CCCN=C(N)N)C(=O)N[C@@H](CCCCN)C(=O)N[C@@H](CCCN=C(N)N)C(=O)NCC(=O)N[C@@H](CCCN=C(N)N)C(=O)N[C@@H](CCCCN)C(=O)N[C@@H](C)C(=O)N[C@H](C(=O)N[C@H](C(=O)N[C@@H](C)C(=O)N[C@@H](Cc1c[nH]c2ccccc12)C(=O)O)[C@@H](C)CC)C(C)C)[C@@H](C)CC [AGRQWIKAYLRREIRKRGRKAVIAW]

MIC [4]: 1.51 µM (≈ 2.5 µg/mL)
MIC [5]: 3.01 µM (≈ 5 µg/mL)
MIC [6]: 18.1 µM (≈ 30 µg/mL)
MIC [7]: 3.01 µM (≈ 5 µg/mL)
MIC [8]: 3.01 µM (≈ 5 µg/mL)
MIC [9]: 18.1 µM (≈ 30 µg/mL)
MIC [10]: 1.51 µM (≈ 2.5 µg/mL)
MIC [11]: 1.51 µM (≈ 2.5 µg/mL)
Compound: CC[C@H](C)[C@H](NC(=O)[C@@H]1CCCN1C(=O)[C@H](Cc1ccccc1)NC(=O)[C@@H](N)Cc1ccccc1)C(=O)N[C@H](C(=O)NCC(=O)N[C@@H](CCCCN)C(=O)N[C@@H](CC(C)C)C(=O)N[C@@H](CC(C)C)C(=O)N[C@@H](CO)C(=O)NCC(=O)N[C@@H](CC(C)C)C(=O)N[C@@H](CO)C(=O)NCC(=O)N[C@@H](CC(C)C)C(=O)N[C@@H](CC(C)C)C(N)=O)C(C)C [FFPIVGKLLSGLSGLL]

MIC [12]: 3.13 µM (≈ 4.52 µg/mL)
MIC [6]: 3.13 µM (≈ 4.52 µg/mL)
MIC [7]: 12.5 µM (≈ 18 µg/mL)
MIC [13]: 3.13 µM (≈ 4.52 µg/mL)
MIC [14]: 6.25 µM (≈ 9.02 µg/mL)
MIC [15]: 12.5 µM (≈ 18 µg/mL)
Compound: CC(C)C[C@H](NC(=O)[C@H](CC(C)C)NC(=O)CNC(=O)[C@H](Cc1ccccc1)NC(=O)[C@H](CCCN=C(N)N)NC(=O)[C@H](CC(C)C)NC(=O)[C@H](CCCCN)NC(=O)[C@H](CCCCN)NC(=O)[C@H](CC(C)C)NC(=O)[C@@H]1CCCN1C(=O)[C@H](CC(C)C)NC(=O)[C@@H](N)Cc1ccccc1)C(N)=O [FLPLKKLRFGLL]

MIC [4]: 0.646 µM (≈ 2.5 µg/mL)
MIC [5]: 1.94 µM (≈ 7.5 µg/mL)
MIC [6]: 1.94 µM (≈ 7.5 µg/mL)
MIC [7]: 12.9 µM (≈ 50 µg/mL)
MIC [8]: 0.646 µM (≈ 2.5 µg/mL)
MIC [9]: 3.23 µM (≈ 12.5 µg/mL)
MIC [10]: 3.23 µM (≈ 12.5 µg/mL)
MIC [11]: 0.323 µM (≈ 1.25 µg/mL)
Compound: CC[C@H](C)[C@H](NC(=O)CN)C(=O)N[C@@H](Cc1ccccc1)C(=O)N[C@@H](CO)C(=O)N[C@@H](CC(C)C)C(=O)N[C@H](C(=O)N[C@@H](CCCCN)C(=O)N[C@H](C(=O)N[C@@H](C)C(=O)N[C@@H](C)C(=O)N[C@@H](CCCCN)C(=O)N[C@@H](Cc1ccccc1)C(=O)N[C@H](C(=O)NCC(=O)N[C@@H](CCCCN)C(=O)N[C@@H](CC(N)=O)C(=O)N[C@@H](CC(C)C)C(=O)N[C@@H](CC(C)C)C(=O)N[C@@H](CCCCN)C(=O)N[C@@H](CCC(N)=O)C(=O)N[C@@H](C)C(=O)NCC(=O)N[C@@H](CCCCN)C(=O)N[C@@H](C)C(=O)NCC(=O)N[C@H](C(=O)N[C@@H](CCC(=O)O)C(=O)N[C@@H](Cc1cnc[nH]1)C(=O)N[C@@H](CC(C)C)C(=O)N[C@@H](C)C(=O)N[C@H]1CSSC[C@@H](C(=O)O)NC(=O)[C@H](CCC(N)=O)NC(=O)[C@H](CC(N)=O)NC(=O)[C@H](CC(N)=O)NC(=O)[C@H](C)NC(=O)[C@H](CCCCN)NC1=O)C(C)C)C(C)C)[C@@H](C)O)[C@@H](C)CC [GIFSLIKTAAKFVGKNLLKQAGKAGVEHLACKANNQC]

MIC [16]: ≥ 93.3 µM
MIC [17]: 23.3 µM (≈ 32 µg/mL)
MIC [18]: ≥ 93.3 µM
MIC [19]: 5.83 µM (≈ 8 µg/mL)
MIC [20]: ≥ 46.7 µM
MIC [21]: 93.3 µM (≈ 128 µg/mL)
MIC [22]: ≥ 46.7 µM
MIC [23]: ≥ 46.7 µM
Compound: CC[C@H](C)[C@H](NC(=O)[C@H](CCCCN)NC(=O)[C@H](Cc1c[nH]c2ccccc12)NC(=O)[C@@H](NC(=O)[C@@H](N)CCCN=C(N)N)[C@@H](C)CC)C(=O)N[C@@H](Cc1c[nH]c2ccccc12)C(=O)N[C@@H](Cc1c[nH]c2ccccc12)C(=O)N[C@@H](CCCCN)C(=O)N[C@@H](CCCN=C(N)N)C(=O)O [RIWKIWWKR]

MIC [12]: 6.25 µM (≈ 10.7 µg/mL)
MIC [24]: 6.25 µM (≈ 10.7 µg/mL)
MIC [25]: 3.13 µM (≈ 5.33 µg/mL)
MIC [26]: 6.25 µM (≈ 10.7 µg/mL)
MIC [15]: 3.13 µM (≈ 5.33 µg/mL)
MIC [27]: 6.25 µM (≈ 10.7 µg/mL)
MIC [28]: 1.56 µM (≈ 2.66 µg/mL)
Compound: CC(C)[C@H](N)C(=O)N[C@@H](Cc1c[nH]c2ccccc12)C(=O)N[C@@H](CCCN=C(N)N)C(=O)N[C@@H](CCCCN)C(=O)N[C@@H](Cc1c[nH]c2ccccc12)C(=O)N[C@@H](CCCN=C(N)N)C(=O)N[C@@H](CCCN=C(N)N)C(=O)N[C@@H](Cc1ccccc1)C(=O)N[C@@H](Cc1c[nH]c2ccccc12)C(=O)N[C@@H](CCCCN)C(=O)N[C@@H](CCCN=C(N)N)C(=O)O [VWRKWRRFWKR]
